Test system: HeLa
Assay: Antiproliferative activity against human HeLa cells assessed as reduction in cell viability measured for 72 hrs by MTT assay
Format: functional, cell-based
Conditions: not given

Which IC50 does the source give for `C[C@H]1[C@H](NC(=O)COCc2ccc(C(=O)/C=C/c3cccc(OC(F)(F)F)c3)cc2)O[C@@H]2O[C@@]3(C)CC[C@H]4[C@H](C)CC[C@@H]1[C@@]24OO3` here?
Its IC50 is 100 nM.

`C[C@H]1[C@H](NC(=O)COCc2ccc(C(=O)/C=C/c3ccc(F)c(F)c3)cc2)O[C@@H]2O[C@@]3(C)CC[C@H]4[C@H](C)CC[C@@H]1[C@@]24OO3` was tested. Which IC50 did it give?
The IC50 was 100 nM.

For `C[C@H]1[C@H](NC(=O)COCc2ccc(C(=O)/C=C/c3ccc(F)cc3F)cc2)O[C@@H]2O[C@@]3(C)CC[C@H]4[C@H](C)CC[C@@H]1[C@@]24OO3`, which IC50 is on record?
Its IC50 is 100 nM.

`C[C@H]1[C@H](NC(=O)COCc2ccc(C(=O)/C=C/c3ccccc3F)cc2)O[C@@H]2O[C@@]3(C)CC[C@H]4[C@H](C)CC[C@@H]1[C@@]24OO3` was tested. Which IC50 did it give?
The IC50 was 100 nM.

`C[C@H]1[C@H](NC(=O)COCc2ccc(C(=O)/C=C/c3ccc(Cl)cc3)cc2)O[C@@H]2O[C@@]3(C)CC[C@H]4[C@H](C)CC[C@@H]1[C@@]24OO3` was tested. Which IC50 did it give?
The IC50 was 100 nM.

For `C[C@H]1[C@@H](NC(=O)COCc2ccc(/C=C/C(=O)c3ccc(Cl)cc3)cc2)O[C@@H]2O[C@@]3(C)CC[C@H]4[C@H](C)CC[C@@H]1[C@@]24OO3`, which IC50 is on record?
The IC50 was 1700 nM.

How did the IC50 turn out when `COc1cccc(/C=C/C(=O)c2ccc(COCC(=O)N[C@@H]3O[C@@H]4O[C@@]5(C)CC[C@H]6[C@H](C)CC[C@@H]([C@H]3C)[C@@]46OO5)cc2)c1` was run?
The IC50 was 100 nM.

Which IC50 does the source give for `C[C@H]1[C@@H](NC(=O)COCc2ccc(C(=O)/C=C/c3ccc(F)cc3F)cc2)O[C@@H]2O[C@@]3(C)CC[C@H]4[C@H](C)CC[C@@H]1[C@@]24OO3` here?
The IC50 was 90 nM.

Test system: HT-29
Assay: Antiproliferative activity against human HT-29 cells assessed as reduction in cell viability measured for 72 hrs by MTT assay
Format: functional, cell-based
Conditions: HT-29, 72 h

Which IC50 does the source give for `C[C@H]1[C@H](NC(=O)COCc2ccc(C(=O)/C=C/c3cccc(OC(F)(F)F)c3)cc2)O[C@@H]2O[C@@]3(C)CC[C@H]4[C@H](C)CC[C@@H]1[C@@]24OO3` here?
Its IC50 is 100 nM.

`C[C@H]1[C@H](NC(=O)COCc2ccc(C(=O)/C=C/c3ccc(F)c(F)c3)cc2)O[C@@H]2O[C@@]3(C)CC[C@H]4[C@H](C)CC[C@@H]1[C@@]24OO3` was tested. Which IC50 did it give?
Its IC50 is 100 nM.

For `C[C@H]1[C@H](NC(=O)COCc2ccc(C(=O)/C=C/c3ccc(F)cc3F)cc2)O[C@@H]2O[C@@]3(C)CC[C@H]4[C@H](C)CC[C@@H]1[C@@]24OO3`, which IC50 is on record?
Its IC50 is 100 nM.

For `C[C@H]1[C@H](NC(=O)COCc2ccc(C(=O)/C=C/c3ccccc3F)cc2)O[C@@H]2O[C@@]3(C)CC[C@H]4[C@H](C)CC[C@@H]1[C@@]24OO3`, which IC50 is on record?
The IC50 was 100 nM.

Which IC50 does the source give for `C[C@H]1[C@H](NC(=O)COCc2ccc(C(=O)/C=C/c3ccc(Cl)cc3)cc2)O[C@@H]2O[C@@]3(C)CC[C@H]4[C@H](C)CC[C@@H]1[C@@]24OO3` here?
Its IC50 is 100 nM.

Which IC50 does the source give for `C[C@H]1[C@@H](NC(=O)COCc2ccc(/C=C/C(=O)c3ccc(Cl)cc3)cc2)O[C@@H]2O[C@@]3(C)CC[C@H]4[C@H](C)CC[C@@H]1[C@@]24OO3` here?
The IC50 was 1700 nM.

Which IC50 does the source give for `COc1cccc(/C=C/C(=O)c2ccc(COCC(=O)N[C@@H]3O[C@@H]4O[C@@]5(C)CC[C@H]6[C@H](C)CC[C@@H]([C@H]3C)[C@@]46OO5)cc2)c1` here?
Its IC50 is 100 nM.

For `C[C@H]1[C@@H](NC(=O)COCc2ccc(C(=O)/C=C/c3ccc(F)cc3F)cc2)O[C@@H]2O[C@@]3(C)CC[C@H]4[C@H](C)CC[C@@H]1[C@@]24OO3`, which IC50 is on record?
The IC50 was 90 nM.

Test system: NCI-H460
Assay: Antiproliferative activity against human NCI-H460 cells assessed as reduction in cell viability measured for 72 hrs by MTT assay
Format: functional, cell-based
Conditions: NCI-H460, 72 h

How did the IC50 turn out when `C[C@H]1[C@H](NC(=O)COCc2ccc(C(=O)/C=C/c3cccc(OC(F)(F)F)c3)cc2)O[C@@H]2O[C@@]3(C)CC[C@H]4[C@H](C)CC[C@@H]1[C@@]24OO3` was run?
Its IC50 is 100 nM.

With `C[C@H]1[C@H](NC(=O)COCc2ccc(C(=O)/C=C/c3ccc(F)c(F)c3)cc2)O[C@@H]2O[C@@]3(C)CC[C@H]4[C@H](C)CC[C@@H]1[C@@]24OO3` as the compound, how does the IC50 read?
The IC50 was 100 nM.

`C[C@H]1[C@H](NC(=O)COCc2ccc(C(=O)/C=C/c3ccc(F)cc3F)cc2)O[C@@H]2O[C@@]3(C)CC[C@H]4[C@H](C)CC[C@@H]1[C@@]24OO3` was tested. Which IC50 did it give?
Its IC50 is 100 nM.

With `C[C@H]1[C@H](NC(=O)COCc2ccc(C(=O)/C=C/c3ccccc3F)cc2)O[C@@H]2O[C@@]3(C)CC[C@H]4[C@H](C)CC[C@@H]1[C@@]24OO3` as the compound, how does the IC50 read?
Its IC50 is 100 nM.

With `C[C@H]1[C@H](NC(=O)COCc2ccc(C(=O)/C=C/c3ccc(Cl)cc3)cc2)O[C@@H]2O[C@@]3(C)CC[C@H]4[C@H](C)CC[C@@H]1[C@@]24OO3` as the compound, how does the IC50 read?
Its IC50 is 100 nM.

For `C[C@H]1[C@@H](NC(=O)COCc2ccc(/C=C/C(=O)c3ccc(Cl)cc3)cc2)O[C@@H]2O[C@@]3(C)CC[C@H]4[C@H](C)CC[C@@H]1[C@@]24OO3`, which IC50 is on record?
Its IC50 is 1700 nM.

`COc1cccc(/C=C/C(=O)c2ccc(COCC(=O)N[C@@H]3O[C@@H]4O[C@@]5(C)CC[C@H]6[C@H](C)CC[C@@H]([C@H]3C)[C@@]46OO5)cc2)c1` was tested. Which IC50 did it give?
Its IC50 is 100 nM.

For `C[C@H]1[C@@H](NC(=O)COCc2ccc(C(=O)/C=C/c3ccc(F)cc3F)cc2)O[C@@H]2O[C@@]3(C)CC[C@H]4[C@H](C)CC[C@@H]1[C@@]24OO3`, which IC50 is on record?
The IC50 was 90 nM.

Test system: A549
Assay: Antiproliferative activity against human A549 cells assessed as reduction in cell viability measured for 72 hrs by MTT assay
Format: functional, cell-based
Conditions: A549, 72 h

With `C[C@H]1[C@H](NC(=O)COCc2ccc(C(=O)/C=C/c3cccc(OC(F)(F)F)c3)cc2)O[C@@H]2O[C@@]3(C)CC[C@H]4[C@H](C)CC[C@@H]1[C@@]24OO3` as the compound, how does the IC50 read?
Its IC50 is 100 nM.

With `C[C@H]1[C@H](NC(=O)COCc2ccc(C(=O)/C=C/c3ccc(F)c(F)c3)cc2)O[C@@H]2O[C@@]3(C)CC[C@H]4[C@H](C)CC[C@@H]1[C@@]24OO3` as the compound, how does the IC50 read?
The IC50 was 100 nM.

With `C[C@H]1[C@H](NC(=O)COCc2ccc(C(=O)/C=C/c3ccc(F)cc3F)cc2)O[C@@H]2O[C@@]3(C)CC[C@H]4[C@H](C)CC[C@@H]1[C@@]24OO3` as the compound, how does the IC50 read?
The IC50 was 100 nM.

How did the IC50 turn out when `C[C@H]1[C@H](NC(=O)COCc2ccc(C(=O)/C=C/c3ccccc3F)cc2)O[C@@H]2O[C@@]3(C)CC[C@H]4[C@H](C)CC[C@@H]1[C@@]24OO3` was run?
Its IC50 is 100 nM.

With `C[C@H]1[C@H](NC(=O)COCc2ccc(C(=O)/C=C/c3ccc(Cl)cc3)cc2)O[C@@H]2O[C@@]3(C)CC[C@H]4[C@H](C)CC[C@@H]1[C@@]24OO3` as the compound, how does the IC50 read?
The IC50 was 100 nM.

How did the IC50 turn out when `C[C@H]1[C@@H](NC(=O)COCc2ccc(/C=C/C(=O)c3ccc(Cl)cc3)cc2)O[C@@H]2O[C@@]3(C)CC[C@H]4[C@H](C)CC[C@@H]1[C@@]24OO3` was run?
The IC50 was 1700 nM.

For `COc1cccc(/C=C/C(=O)c2ccc(COCC(=O)N[C@@H]3O[C@@H]4O[C@@]5(C)CC[C@H]6[C@H](C)CC[C@@H]([C@H]3C)[C@@]46OO5)cc2)c1`, which IC50 is on record?
The IC50 was 100 nM.

Which IC50 does the source give for `C[C@H]1[C@@H](NC(=O)COCc2ccc(C(=O)/C=C/c3ccc(F)cc3F)cc2)O[C@@H]2O[C@@]3(C)CC[C@H]4[C@H](C)CC[C@@H]1[C@@]24OO3` here?
The IC50 was 90 nM.

Test system: MDA-MB-231
Assay: Antiproliferative activity against human MDA-MB-231 cells assessed as reduction in cell viability measured for 72 hrs by MTT assay
Format: functional, cell-based
Conditions: MDA-MB-231, 72 h

For `C[C@H]1[C@H](NC(=O)COCc2ccc(C(=O)/C=C/c3cccc(OC(F)(F)F)c3)cc2)O[C@@H]2O[C@@]3(C)CC[C@H]4[C@H](C)CC[C@@H]1[C@@]24OO3`, which IC50 is on record?
The IC50 was 100 nM.

Which IC50 does the source give for `C[C@H]1[C@H](NC(=O)COCc2ccc(C(=O)/C=C/c3ccc(F)c(F)c3)cc2)O[C@@H]2O[C@@]3(C)CC[C@H]4[C@H](C)CC[C@@H]1[C@@]24OO3` here?
Its IC50 is 100 nM.

For `C[C@H]1[C@H](NC(=O)COCc2ccc(C(=O)/C=C/c3ccc(F)cc3F)cc2)O[C@@H]2O[C@@]3(C)CC[C@H]4[C@H](C)CC[C@@H]1[C@@]24OO3`, which IC50 is on record?
The IC50 was 100 nM.

With `C[C@H]1[C@H](NC(=O)COCc2ccc(C(=O)/C=C/c3ccccc3F)cc2)O[C@@H]2O[C@@]3(C)CC[C@H]4[C@H](C)CC[C@@H]1[C@@]24OO3` as the compound, how does the IC50 read?
The IC50 was 100 nM.

Which IC50 does the source give for `C[C@H]1[C@H](NC(=O)COCc2ccc(C(=O)/C=C/c3ccc(Cl)cc3)cc2)O[C@@H]2O[C@@]3(C)CC[C@H]4[C@H](C)CC[C@@H]1[C@@]24OO3` here?
The IC50 was 100 nM.

How did the IC50 turn out when `C[C@H]1[C@@H](NC(=O)COCc2ccc(/C=C/C(=O)c3ccc(Cl)cc3)cc2)O[C@@H]2O[C@@]3(C)CC[C@H]4[C@H](C)CC[C@@H]1[C@@]24OO3` was run?
The IC50 was 1700 nM.

Which IC50 does the source give for `COc1cccc(/C=C/C(=O)c2ccc(COCC(=O)N[C@@H]3O[C@@H]4O[C@@]5(C)CC[C@H]6[C@H](C)CC[C@@H]([C@H]3C)[C@@]46OO5)cc2)c1` here?
Its IC50 is 100 nM.

For `C[C@H]1[C@@H](NC(=O)COCc2ccc(C(=O)/C=C/c3ccc(F)cc3F)cc2)O[C@@H]2O[C@@]3(C)CC[C@H]4[C@H](C)CC[C@@H]1[C@@]24OO3`, which IC50 is on record?
The IC50 was 90 nM.
